Laboratory results reported in ChEMBL document CHEMBL1123880, “Beta-adrenoceptor antagonist activity of bivalent ligands. 1. Diamide analogues of practolol” (J Med Chem, 1987).

Legend:
Rattus norvegicus = organism: Rattus norvegicus; assay: Ratio of dissociation constant KD' of rat lung to KD' of rat heart; type: tissue-based
[1] = target: Beta-2 adrenergic receptor (Rattus norvegicus) (UniProt P10608); conditions: Lung, Membrane
Description: Apparent dissociation constant towards beta-2 adrenergic receptor in rat lung membranes using (2-6)x10E-9M of [3AH]-DHA in the presence or absence of 10e-5 M (+/-) propranolol.

[2] = target: Beta-1 adrenergic receptor (Rattus norvegicus) (UniProt P18090); conditions: Heart, Membrane
Beta-1 adrenergic receptor (Rattus norvegicus), sequence (P18090 whole entry, looked up): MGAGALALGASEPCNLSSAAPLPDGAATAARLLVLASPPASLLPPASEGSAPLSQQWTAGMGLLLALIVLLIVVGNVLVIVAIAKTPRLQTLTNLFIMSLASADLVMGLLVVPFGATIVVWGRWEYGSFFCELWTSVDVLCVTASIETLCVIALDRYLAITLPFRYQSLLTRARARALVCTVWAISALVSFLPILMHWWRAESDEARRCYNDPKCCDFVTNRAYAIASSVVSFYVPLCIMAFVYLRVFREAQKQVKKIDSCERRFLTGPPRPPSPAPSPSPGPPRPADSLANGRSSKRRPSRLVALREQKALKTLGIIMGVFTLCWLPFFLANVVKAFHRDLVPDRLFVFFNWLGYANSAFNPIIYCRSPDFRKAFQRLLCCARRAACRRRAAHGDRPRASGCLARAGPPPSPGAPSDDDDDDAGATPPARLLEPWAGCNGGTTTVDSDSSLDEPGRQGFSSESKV
Description: Apparent dissociation constant towards beta-1 adrenergic receptor in rat heart membranes using (2-6)x10E-9M of [3AH]-DHA in the presence or absence of 10e-5 M (+/-) propranolol.

Beta-2 adrenergic receptor (Rattus norvegicus), sequence (P10608 whole entry, looked up): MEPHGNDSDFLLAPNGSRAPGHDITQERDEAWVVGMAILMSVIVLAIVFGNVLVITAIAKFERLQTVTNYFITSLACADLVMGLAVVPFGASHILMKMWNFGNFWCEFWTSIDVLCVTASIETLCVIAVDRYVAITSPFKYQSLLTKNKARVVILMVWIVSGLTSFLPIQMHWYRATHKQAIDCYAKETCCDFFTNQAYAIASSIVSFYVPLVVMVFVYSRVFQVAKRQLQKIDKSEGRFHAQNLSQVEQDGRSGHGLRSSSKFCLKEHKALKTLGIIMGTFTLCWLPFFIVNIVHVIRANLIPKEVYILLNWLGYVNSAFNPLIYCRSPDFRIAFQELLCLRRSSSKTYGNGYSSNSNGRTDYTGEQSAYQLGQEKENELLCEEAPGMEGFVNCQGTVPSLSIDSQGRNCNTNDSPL

| Ratio (Rattus norvegicus) | KD' [1] [µM] | KD' [2] [µM] | SMILES |
| --- | --- | --- | --- |
| 7.5 | 67.5 | 9 | CC(C)NCC(O)COc1ccc(NC(=O)CCCCC(=O)Nc2ccc(OCC(O)CNC(C)C)cc2)cc1 (configuration not stated) |
| 5.6 | 28.1 | 5 | CC(C)NCC(O)COc1ccc(NC(=O)CNCCCCCCNCC(=O)Nc2ccc(OCC(O)CNC(C)C)cc2)cc1 (configuration not stated) |
| 7.8 | 3.9 | 0.5 | CC(C)NCC(O)COc1ccc(NC(=O)CNCCCCCCCCNCC(=O)Nc2ccc(OCC(O)CNC(C)C)cc2)cc1 (configuration not stated) |
| 1.7 | 28.1 | 16.3 | CC(C)NCC(O)COc1ccc(NC(=O)CCC(=O)Nc2ccc(OCC(O)CNC(C)C)cc2)cc1 (configuration not stated) |
| 13.4 | 28.1 | 2.1 | CC(C)NCC(O)COc1ccc(NC(=O)CN2CCN(CC(=O)Nc3ccc(OCC(O)CNC(C)C)cc3)CC2)cc1 (configuration not stated) |
| 5.9 | 36.5 | 6.2 | CC(=O)Nc1ccc(OCC(O)CNC(C)C)cc1 (configuration not stated) |
| 0.9 | 3.9 | 4.4 | CC(C)NCC(O)COc1ccc(NC(=O)CCCCCCC(=O)Nc2ccc(OCC(O)CNC(C)C)cc2)cc1 (configuration not stated) |
| 5.8 | 186 | 32.2 | CC(C)NCC(O)COc1ccc(NC(=O)CNCCCCNCC(=O)Nc2ccc(OCC(O)CNC(C)C)cc2)cc1 (configuration not stated) |
| 14 | 1.4 | 0.1 | CC(C)NCC(O)COc1ccc(NC(=O)CCCCCCCCC(=O)Nc2ccc(OCC(O)CNC(C)C)cc2)cc1 (configuration not stated) |
